Reference: the kinase profiling compilation of Christmann-Franck et al. (2016)

Key:
Assay in all cases: KINOMEscan competition binding
Details in all cases: compound 10.0 µM
AURKB (human) = AURKB (human) (UniProt Q96GD4)
RAF1 (human) = RAF1 (human) (UniProt P04049)
CSNK1E (human) = CSNK1E (human) (UniProt P49674)
NTRK1 (human) = NTRK1 (human) (UniProt P04629)
CaMK1 (human) = CaMK1 (human) (UniProt Q14012)
CAMK2D (human) = CAMK2D (human) (UniProt Q13557)
EPHA5 (human) = EPHA5 (human) (UniProt P54756)
PIM3 (human) = PIM3 (human) (UniProt Q86V86)
CAMK4 (human) = CAMK4 (human) (UniProt Q16566)
MAP3K2 (human) = MAP3K2 (human) (UniProt Q9Y2U5)
TYRO3 (human) = TYRO3 (human) (UniProt Q06418)
LYN (human) = LYN (human) (UniProt P07948)
MYLK3 (human) = MYLK3 (human) (UniProt Q32MK0)
SRPK2 (human) = SRPK2 (human) (UniProt P78362)
EIF2AK2 (human) = EIF2AK2 (human) (UniProt P19525)
TXK (human) = TXK (human) (UniProt P42681)
PTK6 (human) = PTK6 (human) (UniProt Q13882)
[1] = tested on: KIT (human), P10721 [V559D/V654A]
[2] = molecular target: TYK2 JH2 pseudokinase (human) (UniProt P29597)
PKMYT1 (human) = PKMYT1 (human) (UniProt Q99640)
TAOK3 (human) = TAOK3 (human) (UniProt Q9H2K8)
PAK4 (human) = PAK4 (human) (UniProt O96013)
MAP4K5 (human) = MAP4K5 (human) (UniProt Q9Y4K4)
RIPK2 (human) = RIPK2 (human) (UniProt O43353)
[3] = tested on: EGFR (human), P00533 [T790M/L858R]
TNK2 (human) = TNK2 (human) (UniProt Q07912)
MYLK (human) = MYLK (human) (UniProt Q15746)
CHEK2 (human) = CHEK2 (human) (UniProt O96017)
EPHA3 (human) = EPHA3 (human) (UniProt P29320)
SRPK1 (human) = SRPK1 (human) (UniProt Q96SB4)
PIP5K1A (human) = PIP5K1A (human) (UniProt Q99755)
STK32A (human) = STK32A (human) (UniProt Q8WU08)
CDK14 (human) = CDK14 (human) (UniProt O94921)
DMPK (human) = DMPK (human) (UniProt Q09013)
MAPK8 (human) = MAPK8 (human) (UniProt P45983)
MAPK3 (human) = MAPK3 (human) (UniProt P27361)
[4] = tested on: EGFR (human), P00533 [752-759 del]
RPS6KA4 KD2 (human) = RPS6KA4 KD2 (human) (UniProt O75676)
PTK2B (human) = PTK2B (human) (UniProt Q14289)
CDK8 (human) = CDK8 (human) (UniProt P49336)
MAP4K2 (human) = MAP4K2 (human) (UniProt Q12851)
PDGFRA (human) = PDGFRA (human) (UniProt P16234)

CAMK2D (human), sequence (Q13557 whole entry, looked up): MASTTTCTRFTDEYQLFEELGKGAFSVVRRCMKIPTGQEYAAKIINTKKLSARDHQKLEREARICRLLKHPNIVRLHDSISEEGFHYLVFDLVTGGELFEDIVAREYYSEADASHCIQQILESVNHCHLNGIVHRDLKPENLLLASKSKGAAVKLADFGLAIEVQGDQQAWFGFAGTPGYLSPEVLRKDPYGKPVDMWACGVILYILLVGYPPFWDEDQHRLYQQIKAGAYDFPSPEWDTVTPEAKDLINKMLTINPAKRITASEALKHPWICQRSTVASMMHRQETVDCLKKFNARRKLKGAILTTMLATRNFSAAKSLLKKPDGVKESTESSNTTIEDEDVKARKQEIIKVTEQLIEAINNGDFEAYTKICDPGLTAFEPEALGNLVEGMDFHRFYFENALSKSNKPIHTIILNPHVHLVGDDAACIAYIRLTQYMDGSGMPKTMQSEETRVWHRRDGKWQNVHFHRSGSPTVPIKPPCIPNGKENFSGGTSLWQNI
CHEK2 (human), sequence (O96017 whole entry, looked up): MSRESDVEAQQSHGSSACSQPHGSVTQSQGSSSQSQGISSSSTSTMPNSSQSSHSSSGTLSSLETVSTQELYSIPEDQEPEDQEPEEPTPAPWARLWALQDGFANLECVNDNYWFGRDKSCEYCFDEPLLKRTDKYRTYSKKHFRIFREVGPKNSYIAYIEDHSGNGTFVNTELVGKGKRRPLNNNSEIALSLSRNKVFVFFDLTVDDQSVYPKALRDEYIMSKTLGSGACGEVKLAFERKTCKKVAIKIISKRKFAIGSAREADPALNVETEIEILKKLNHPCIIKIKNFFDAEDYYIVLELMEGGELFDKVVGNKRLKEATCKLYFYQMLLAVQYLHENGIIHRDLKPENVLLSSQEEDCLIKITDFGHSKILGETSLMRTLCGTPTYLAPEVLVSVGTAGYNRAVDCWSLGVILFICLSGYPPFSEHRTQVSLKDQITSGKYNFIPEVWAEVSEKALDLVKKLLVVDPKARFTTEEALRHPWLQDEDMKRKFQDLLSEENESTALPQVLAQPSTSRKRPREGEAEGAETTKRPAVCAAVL
KIT (human), P10721 [V559D/V654A], sequence (P10721 whole entry V559D/V654A, looked up): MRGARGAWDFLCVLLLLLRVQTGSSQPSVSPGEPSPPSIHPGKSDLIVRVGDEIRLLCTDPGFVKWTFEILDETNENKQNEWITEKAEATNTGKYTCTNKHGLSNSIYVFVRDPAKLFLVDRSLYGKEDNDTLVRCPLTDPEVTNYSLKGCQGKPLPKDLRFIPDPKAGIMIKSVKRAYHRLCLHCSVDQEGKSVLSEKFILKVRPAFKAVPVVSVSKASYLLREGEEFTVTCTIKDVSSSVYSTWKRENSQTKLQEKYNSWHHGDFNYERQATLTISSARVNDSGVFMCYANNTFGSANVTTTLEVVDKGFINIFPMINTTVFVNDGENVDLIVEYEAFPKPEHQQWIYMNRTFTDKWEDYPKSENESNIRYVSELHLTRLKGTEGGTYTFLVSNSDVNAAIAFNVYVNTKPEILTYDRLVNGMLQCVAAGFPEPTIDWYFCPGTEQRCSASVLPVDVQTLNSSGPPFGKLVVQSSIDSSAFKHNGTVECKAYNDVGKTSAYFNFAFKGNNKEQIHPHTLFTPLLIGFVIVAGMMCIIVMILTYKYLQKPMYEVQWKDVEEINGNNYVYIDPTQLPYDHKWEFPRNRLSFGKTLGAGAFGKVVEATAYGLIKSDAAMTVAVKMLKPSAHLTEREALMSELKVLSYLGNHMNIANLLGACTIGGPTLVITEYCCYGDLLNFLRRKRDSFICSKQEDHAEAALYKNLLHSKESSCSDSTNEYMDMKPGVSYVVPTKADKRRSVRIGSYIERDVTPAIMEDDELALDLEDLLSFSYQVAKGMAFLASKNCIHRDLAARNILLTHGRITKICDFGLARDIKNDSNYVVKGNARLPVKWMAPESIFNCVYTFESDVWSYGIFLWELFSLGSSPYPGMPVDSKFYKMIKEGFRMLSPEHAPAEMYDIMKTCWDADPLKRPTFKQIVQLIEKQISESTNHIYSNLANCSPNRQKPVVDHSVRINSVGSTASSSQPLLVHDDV
TNK2 (human), sequence (Q07912 whole entry, looked up): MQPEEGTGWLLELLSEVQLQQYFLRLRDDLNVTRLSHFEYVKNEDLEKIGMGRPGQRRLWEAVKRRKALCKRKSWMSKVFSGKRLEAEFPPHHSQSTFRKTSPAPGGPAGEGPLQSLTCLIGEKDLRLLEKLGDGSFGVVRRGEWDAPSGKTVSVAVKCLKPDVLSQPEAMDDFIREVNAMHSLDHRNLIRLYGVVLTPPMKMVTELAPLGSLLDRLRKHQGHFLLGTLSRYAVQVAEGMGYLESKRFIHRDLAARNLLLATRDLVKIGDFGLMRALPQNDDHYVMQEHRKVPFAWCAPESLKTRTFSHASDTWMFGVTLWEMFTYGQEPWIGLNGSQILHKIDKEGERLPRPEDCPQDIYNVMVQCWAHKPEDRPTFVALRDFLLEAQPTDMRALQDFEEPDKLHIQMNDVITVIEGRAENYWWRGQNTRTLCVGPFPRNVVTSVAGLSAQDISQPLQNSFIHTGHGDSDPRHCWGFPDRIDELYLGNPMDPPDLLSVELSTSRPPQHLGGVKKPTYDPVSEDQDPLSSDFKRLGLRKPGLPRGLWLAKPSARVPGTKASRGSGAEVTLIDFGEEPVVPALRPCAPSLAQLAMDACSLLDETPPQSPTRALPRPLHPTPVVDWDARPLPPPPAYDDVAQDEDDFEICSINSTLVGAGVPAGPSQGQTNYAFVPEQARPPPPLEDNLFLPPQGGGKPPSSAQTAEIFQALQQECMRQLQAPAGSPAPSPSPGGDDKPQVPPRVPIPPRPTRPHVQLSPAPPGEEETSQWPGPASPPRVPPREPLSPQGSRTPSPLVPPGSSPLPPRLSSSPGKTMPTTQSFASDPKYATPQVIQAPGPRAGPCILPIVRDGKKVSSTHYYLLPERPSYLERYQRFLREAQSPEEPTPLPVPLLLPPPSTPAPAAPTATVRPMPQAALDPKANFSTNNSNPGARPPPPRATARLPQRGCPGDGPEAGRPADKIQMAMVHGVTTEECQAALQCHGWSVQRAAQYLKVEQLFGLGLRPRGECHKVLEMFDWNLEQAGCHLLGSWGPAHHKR
TAOK3 (human), sequence (Q9H2K8 whole entry, looked up): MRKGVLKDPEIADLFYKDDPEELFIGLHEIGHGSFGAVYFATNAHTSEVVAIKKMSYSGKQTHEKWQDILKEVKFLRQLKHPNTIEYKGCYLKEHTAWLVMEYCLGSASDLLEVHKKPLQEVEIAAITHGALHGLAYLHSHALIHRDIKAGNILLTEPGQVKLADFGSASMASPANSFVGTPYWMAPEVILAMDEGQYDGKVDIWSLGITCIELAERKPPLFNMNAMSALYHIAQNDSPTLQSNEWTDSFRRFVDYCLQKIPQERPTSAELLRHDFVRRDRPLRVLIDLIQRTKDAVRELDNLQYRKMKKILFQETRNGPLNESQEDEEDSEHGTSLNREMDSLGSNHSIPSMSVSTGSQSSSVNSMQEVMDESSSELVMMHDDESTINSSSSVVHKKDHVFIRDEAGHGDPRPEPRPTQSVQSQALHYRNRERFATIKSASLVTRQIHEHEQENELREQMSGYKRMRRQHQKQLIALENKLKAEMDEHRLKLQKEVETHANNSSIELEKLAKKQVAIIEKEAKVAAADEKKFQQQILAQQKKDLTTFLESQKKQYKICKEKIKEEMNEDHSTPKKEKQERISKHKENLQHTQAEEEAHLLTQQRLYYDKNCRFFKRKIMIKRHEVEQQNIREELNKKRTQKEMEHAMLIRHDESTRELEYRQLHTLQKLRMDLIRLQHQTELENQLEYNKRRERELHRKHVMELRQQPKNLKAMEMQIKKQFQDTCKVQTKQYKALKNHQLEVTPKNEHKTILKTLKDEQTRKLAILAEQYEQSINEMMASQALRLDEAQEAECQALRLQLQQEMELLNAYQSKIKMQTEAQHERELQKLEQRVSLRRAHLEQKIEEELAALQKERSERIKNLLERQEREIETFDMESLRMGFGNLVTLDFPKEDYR
MAP4K2 (human), sequence (Q12851 whole entry, looked up): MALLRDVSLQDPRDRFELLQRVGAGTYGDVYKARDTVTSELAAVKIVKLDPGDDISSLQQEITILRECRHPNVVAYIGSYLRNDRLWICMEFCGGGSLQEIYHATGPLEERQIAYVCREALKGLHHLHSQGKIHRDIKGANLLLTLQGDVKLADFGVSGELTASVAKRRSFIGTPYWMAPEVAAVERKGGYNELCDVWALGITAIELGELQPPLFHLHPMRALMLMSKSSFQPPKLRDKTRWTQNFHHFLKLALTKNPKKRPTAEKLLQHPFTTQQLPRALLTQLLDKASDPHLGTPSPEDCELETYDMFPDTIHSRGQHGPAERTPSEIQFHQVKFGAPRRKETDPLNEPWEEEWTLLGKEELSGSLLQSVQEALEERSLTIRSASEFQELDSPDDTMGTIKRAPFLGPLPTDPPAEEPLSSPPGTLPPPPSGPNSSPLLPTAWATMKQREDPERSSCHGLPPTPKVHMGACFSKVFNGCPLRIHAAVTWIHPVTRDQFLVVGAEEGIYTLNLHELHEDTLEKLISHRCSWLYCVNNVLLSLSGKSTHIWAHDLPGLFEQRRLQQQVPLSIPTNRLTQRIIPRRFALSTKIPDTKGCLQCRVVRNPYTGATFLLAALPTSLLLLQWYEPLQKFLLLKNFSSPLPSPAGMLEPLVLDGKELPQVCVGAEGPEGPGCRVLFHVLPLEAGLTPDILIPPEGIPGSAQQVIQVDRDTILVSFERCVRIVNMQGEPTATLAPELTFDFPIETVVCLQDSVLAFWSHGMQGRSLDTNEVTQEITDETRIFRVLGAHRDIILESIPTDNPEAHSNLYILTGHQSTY

Work on `Cc1cc([C@@H](C)Nc2ccccc2C(=O)O)c2nc(N3CCOCC3)cc(=O)n2c1` yielded a kinase still bound, per cent of control (AURKB (human)) of 76%, a kinase still bound, per cent of control (RAF1 (human)) of 97% and a kinase still bound, per cent of control (CSNK1E (human)) of 92%. The kinase still bound, per cent of control (NTRK1 (human)) was 69%, the kinase still bound, per cent of control (CaMK1 (human)) was 94% and the kinase still bound, per cent of control (CAMK2D (human)) was 100%. For the same molecule, the kinase still bound, per cent of control (EPHA5 (human)) was 100%, the kinase still bound, per cent of control (PIM3 (human)) was 100% and the kinase still bound, per cent of control (CAMK4 (human)) was 100%. It also gave a kinase still bound, per cent of control (MAP3K2 (human)) of 88%, a kinase still bound, per cent of control (TYRO3 (human)) of 100% and a kinase still bound, per cent of control (LYN (human)) of 89%. For the same molecule, the kinase still bound, per cent of control (MYLK3 (human)) was 82%, the kinase still bound, per cent of control (SRPK2 (human)) was 88% and the kinase still bound, per cent of control (EIF2AK2 (human)) was 100%. It also gave a kinase still bound, per cent of control (TXK (human)) of 100%, a kinase still bound, per cent of control (PTK6 (human)) of 15% and a kinase still bound, per cent of control [1] of 100%. For the same molecule, the kinase still bound, per cent of control [2] was 95%, the kinase still bound, per cent of control (PKMYT1 (human)) was 99% and the kinase still bound, per cent of control (TAOK3 (human)) was 95%. It also gave a kinase still bound, per cent of control (PAK4 (human)) of 95%, a kinase still bound, per cent of control (MAP4K5 (human)) of 92% and a kinase still bound, per cent of control (RIPK2 (human)) of 52%. For the same molecule, the kinase still bound, per cent of control [3] was 100%, the kinase still bound, per cent of control (TNK2 (human)) was 100% and the kinase still bound, per cent of control (MYLK (human)) was 43%. The kinase still bound, per cent of control (CHEK2 (human)) was 100%, the kinase still bound, per cent of control (EPHA3 (human)) was 85% and the kinase still bound, per cent of control (SRPK1 (human)) was 100%. For the same molecule, the kinase still bound, per cent of control (PIP5K1A (human)) was 100%, the kinase still bound, per cent of control (STK32A (human)) was 100% and the kinase still bound, per cent of control (CDK14 (human)) was 100%. The kinase still bound, per cent of control (DMPK (human)) was 95%, the kinase still bound, per cent of control (MAPK8 (human)) was 100% and the kinase still bound, per cent of control (MAPK3 (human)) was 94%. For the same molecule, the kinase still bound, per cent of control [4] was 100%, the kinase still bound, per cent of control (RPS6KA4 KD2 (human)) was 83% and the kinase still bound, per cent of control (PTK2B (human)) was 90%. For the same molecule, the kinase still bound, per cent of control (CDK8 (human)) was 100%, the kinase still bound, per cent of control (MAP4K2 (human)) was 97% and the kinase still bound, per cent of control (PDGFRA (human)) was 100%.
